# Laboratory results from ChEMBL document CHEMBL1127989, “Structure-activity studies of synthetic FKBP ligands as peptidyl-prolyl isomerase inhibitors” (Bioorg Med Chem Lett, 1994).
# Assay: Apparent inhibition constant against peptidyl prolyl isomerase; range=0.3-0.6
# Conditions: read-out: Ki app
row,Ki,SMILES
1,300 nM,CCC(C)(C)C(=O)C(=O)N1CCCC[C@H]1C(=O)OC(CCc1ccccc1)c1ccccc1 (stereo partly specified)

# Assay: Inhibition constant against peptidyl prolyl isomerase
# Conditions: read-out: Ki app
row,SMILES,Ki
1,C=CC(C)(C)C(CCc1ccccc1)OC(=O)[C@H]1CCCCN1C(=O)C(=O)C(C)(C)CC (stereo partly specified),250 nM
2,CO[C@H]1C[C@@H]2CC[C@@H](C)[C@@](O)(O2)C(=O)C(=O)N2CCCC[C@H]2C(=O)O[C@H]([C@H](C)C[C@@H]2CC[C@@H](O)[C@H](OC)C2)CC(=O)[C@H](C)/C=C(\C)[C@@H](O)[C@@H](OC)C(=O)[C@H](C)C[C@H](C)/C=C/C=C/C=C/1C [SIROLIMUS],1000 nM
3,CCC(C)(C)C(=O)C(=O)N1CCCC[C@@H]1C(=O)OC(CCc1ccc2c(c1)OCO2)c1ccccc1 (stereo partly specified),9 nM
4,CCOC(=O)C1CCCCN1C(=S)C(=O)CC(C)C (stereo unspecified),4300 nM
5,COc1cc(CCCOC(=O)[C@@H]2CCCCN2S(=O)(=O)Cc2ccccc2)cc(OC)c1OC,230 nM
6,CCOC(=O)C1CCCCN1C(=O)C(=O)C1CCCCC1 (stereo unspecified),2000 nM
7,O=C(C(=O)N1CCCC[C@H]1C(=O)OC(CCC1CCCCC1)c1ccccc1)C1CCCCC1 (stereo partly specified),16000 nM
8,CCC(C)(C)C(=O)C(=O)N1CCCCC1C(=O)OCCCCc1ccccc1 (stereo unspecified),100 nM
9,CCOC(=O)C1CCCCN1C(=O)C(=O)C(C)(C)CC (stereo unspecified),660 nM
10,CCOC(=O)C1CCCCN1C(=O)C(=O)c1ccccc1 (stereo unspecified),8000 nM
11,C/C(=C\c1ccccc1)COC(=O)C1CCCCN1C(=O)C(=O)C1CCCCC1 (stereo unspecified),300 nM
12,CCOC(=O)[C@H]1CCCCN1C(=O)C(=O)C1(OC)CCCCC1,22000 nM
13,O=C(C(=O)N1CCCCC1C(=O)NCCCc1ccccc1)C1CCCCC1 (stereo unspecified),1000 nM
14,CCC(C)(C)C(O)C(=O)N1CCCC[C@H]1C(=O)OCCCc1ccccc1 (stereo partly specified),2300 nM
15,CCC(C)(C)C(=O)C(=O)N1CCCCC1C(=O)OCCCc1ccccc1 (stereo unspecified),110 nM
16,O=CC1CCCCN1C(=O)C(=O)C1CCCCC1 (stereo in doubt; 59),20 nM
17,CC(C)(CCC1CCCCC1)OC(=O)C1CCCCN1C(=O)C(=O)C1CCCCC1 (stereo unspecified),200 nM
18,CCC(C)(C)C(=O)C(=O)N1CCCCC1C(=O)OCc1cccc2ccccc12 (stereo unspecified),250 nM
19,CCOC(=O)C1CCCN(C(=O)C(=O)C2(OC)CCCCO2)C1 (stereo unspecified),180000 nM
20,O=CC1CCCCN1C(=O)C(=O)C1CCCCC1 (stereo in doubt; 35),250 nM
21,CCCC(=O)C1CCCCN1C(=O)C(=O)C(C)(C)CC (stereo unspecified),30000 nM
22,CCC(C)(C)C(=O)C(=O)N1CCCCC1C(=O)OCCCc1ccc(OC)cc1 (stereo unspecified),70 nM
23,O=C(O[C@H](CCc1ccccc1)c1ccccc1)[C@@H]1CCCCN1S(=O)(=O)Cc1ccccc1,160 nM
24,CCC(C)(C)C(=O)C(=O)N1CCCCC1C(=O)OC/C=C/c1ccc(OC)c(OC)c1 (stereo unspecified),35 nM

# Continued, values first:
row,Ki,SMILES
1,9000 nM,CCOC(=O)C1CCCCN1C(=O)C(=O)Cc1ccccc1 (stereo unspecified)
2,60 nM,CCC(C)(C)C(=O)C(=O)N1CCCCC1C(=O)OCCCc1ccc(OCc2ccccc2)cc1 (stereo unspecified)
3,730000 nM,CCOC(=O)C1CCCCN1NC(=O)C1CCCCC1 (stereo unspecified)
4,200 nM,O=CC1CCCCN1C(=O)C(=O)C1CCCCC1 (stereo in doubt; 44)
5,2000 nM,CCOC(=O)C1CCCCN1C(=O)C(=O)C(C)(C)C (stereo unspecified)
6,4000 nM,CCOC(=O)C1CCCCN1C(=O)C(=O)C1(OC)CCCCO1 (stereo unspecified)
7,50000 nM,CCOC(=O)C1CCCCN1C(=O)C(=O)CC (stereo unspecified)
8,1600 nM,CCOC(=O)C1CCCCN1C(=O)C(=O)C1(O)CCCCC1 (stereo unspecified)
9,600000 nM,CCOC(=O)[C@H]1CCCN1C(=O)C(=O)C1(OC)CCCCC1
10,60 nM,CCC(C)(C)C(=O)C(=O)N1CCCCC1C(=O)OCCCc1ccccc1OC (stereo unspecified)
11,410 nM,CCC(C)(C)C(=O)C(=O)N1CCCCC1C(=O)OCC(C)(C)C (stereo unspecified)
12,300 nM,CCC(C)(C)C(=O)C(=O)N1CCCC[C@H]1C(=O)OC(CCc1ccccc1)C1CCCCC1 (stereo partly specified)
13,186 nM,CCC(C)(C)C(=O)C(=O)N1CCCCC1C(=O)OCCCC1CCCCC1 (stereo unspecified)
14,7 nM,CCC(C)(C)C(=O)C(=O)N1CCCC[C@@H]1C(=O)OC(CCc1ccccc1)C1CCCCC1 (stereo partly specified)
15,33000 nM,CCOC(=O)C1CCCCN1C(=O)C(=O)N1CCCCC1 (stereo unspecified)
16,1000 nM,CCOC(=O)C1CCCCN1C(=O)C(=O)C1(OC)CCCCC1 (stereo unspecified)
17,260000 nM,C=CCN(CC(=O)OCC)C(=O)C(=O)C1(OC)CCCCC1
18,340 nM,CCC(C)(C)C(=O)C(=O)N1CCCCC1C(=O)OCCc1ccccc1 (stereo unspecified)
19,200 nM,COc1cc(CC[C@@H](OC(=O)[C@@H]2CCCCN2C(=O)CC(C)(C)C)c2ccccc2)cc(OC)c1OC
20,8000 nM,CCOC(=O)[C@@H]1CCCN1C(=O)C(=O)C1(OC)CCCCC1

row,Ki,SMILES
1,160000 nM,COC1(C(=O)C(=O)N2CCCCC2)CCCCO1 (stereo unspecified)
2,6000 nM,CCOC(=O)C1CCCCN1C(=O)C(=O)C(C)C (stereo unspecified)
3,1000 nM,CCOC(=O)C1CCCCN1C(=O)C(=O)C(C)(C)COC(C)=O (stereo unspecified)
4,20000 nM,CCOC(=O)C1CCCCN1C(=O)C(=O)C1=CCCCO1 (stereo unspecified)
5,23 nM,CCC(C)(C)C(=O)C(=O)N1CCCCC1C(=O)OCCCc1c[nH]c2ccccc12 (stereo unspecified)
6,23000 nM,CCOC(=O)CN(C)C(=O)C(=O)C1(OC)CCCCC1
7,95 nM,CCC(C)(C)C(=O)C(=O)N1CCCCC1C(=O)OCCCc1ccc(O)cc1 (stereo unspecified)
8,55 nM,CCC(C)(C)C(=O)C(=O)N1CCCCC1C(=O)OC(CCc1ccccc1)Cc1ccccc1 (stereo unspecified)
9,9 nM,CCC(C)(C)C(=O)C(=O)N1CCCC[C@@H]1C(=O)OC(CCc1cc(OC)c(OC)c(OC)c1)c1ccccc1 (stereo partly specified)
10,330 nM,CCC(C)(C)C(=O)C(=O)N1CCCCC1C(=O)OCCc1c[nH]c2ccccc12 (stereo unspecified)
11,200 nM,CCC(C)(C)C(=O)C(=O)N1CCCCC1C(=O)OCc1ccc2ccccc2c1 (stereo unspecified)
12,20 nM,CCC(C)(C)C(=O)C(=O)N1CCCCC1C(=O)OCCCc1ccc(OC)c(OC)c1 (stereo unspecified)
13,27 nM,CCC(C)(C)C(=O)C(=O)N1CCCCC1C(=O)OCCC(c1ccccc1)c1ccccc1 (stereo unspecified)
14,12 nM,CCC(C)(C)C(=O)C(=O)N1CCCCC1C(=O)OCCCc1cc(OC)c(OC)c(OC)c1 (stereo unspecified)
15,400 nM,O=C(C(=O)N1CCCCC1C(=O)OCc1ccccc1)C1CCCCC1 (stereo unspecified)
16,165 nM,CCC(C)(C)C(=O)C(=O)N1CCCCC1C(=O)OCCCc1cccnc1 (stereo unspecified)
17,170000 nM,CCOC(=O)C1CCCCN1C(=O)C(C)=O (stereo unspecified)
18,10 nM,CCC(C)(C)C(=O)C(=O)N1CCCC[C@@H]1C(=O)OC(CCC1CCCCC1)c1ccccc1 (stereo partly specified)
19,2000 nM,CCOC(=O)C1CCCCN1C(=O)C(=O)CC(C)C (stereo unspecified)

# Assay: Apparent inhibition constant against peptidyl prolyl isomerase; range = 0.002-0.006
# Conditions: read-out: Ki app
row,Ki,SMILES
1,2 nM,CCC(C)(C)C(=O)C(=O)N1CCCC[C@@H]1C(=O)OC(CCc1ccc(OC)c(OC)c1)c1ccccc1 (stereo partly specified)

# Assay: Apparent inhibition constant against peptidyl prolyl isomerase; range=0.004-0.010
# Conditions: read-out: Ki app
row,Ki,SMILES
1,4 nM,CCC(C)(C)C(=O)C(=O)N1CCCC[C@@H]1C(=O)OC(CCc1ccccc1)c1ccc2ccccc2c1 (stereo partly specified)

# Assay: Apparent inhibition constant against peptidyl prolyl isomerase (Ki app)
# Conditions: not given
row,SMILES,Ki
1,O=C(C(=O)N1CCCC[C@@H]1C(=O)NC(CO)Cc1ccccc1)C1CCCCC1 (stereo partly specified),60000 nM
2,CCOC(=O)C(CCc1ccccc1)NC(=O)[C@H]1CCCCN1C(=O)C(=O)C1CCCCC1 (stereo partly specified),1900 nM

# Continued, values first:
row,Ki,SMILES
1,20000 nM,O=C(C(=O)N1CCCCC1C(=O)N(CCCc1ccccc1)Cc1ccccc1)C1CCCCC1 (stereo unspecified)
2,3000 nM,O=C(C(=O)N1CCCCC1C(=O)NCCc1ccccc1)C1CCCCC1 (stereo unspecified)

# Same assay, conditions: read-out: Ki app
row,Ki,SMILES
1,7000 nM,CCOC(=O)C1CCCCN1C(=O)C(=O)C1(O)CCCCO1 (stereo unspecified)
